Laboratory results reported in US20100267637A1, “TREATMENT OF MELANOMA WITH ALPHA THYMOSIN PEPTIDES IN COMBINATION WITH A KINASE INHIBITOR” (SciClone Pharmaceuticals, Inc., priority 2007, published 2010).
Where no end group is shown, it is not given here.

System: murine B16 melanoma cells
Experiment: Anti-tumor effect: tumor weight at necropsy (Day 16) in mice bearing subcutaneous B16 melanoma
Assay type: in vivo, C57BL/6 mice
Conditions: for Tumor Weight (g) (Mean ± SD): group mean
Procedure: The toxic effects of the dosing regimens were also monitored. […] Meanwhile 9H10 was given in two groups via i.p. on Day 3, 6 and 9. […] Tumor volume and body weight were measured every three days, and tumor weights were measured on Day 16 at the end of the study.
On the day of tumor implantation, approximately 1×10^6 cells in 0.1 mL were subcutaneously injected on the right axillary area of each mouse. The day of tumor implantation was defined as Day 0.
On Day 3, the animals were randomly assigned into nine different weight-matched and tumor-size-matched groups. Dosing was started on Day 3 using the regimen according to Table 2.
From Day 1 to Day 15, mortality and moribundity were checked twice daily, the body weights were recorded once every 3 days, and tumors were measured using a caliper once every 3 days. At the end of the study (Day 16), the animals were euthanized by CO2 asphyxiation, and the tumors were excised and weighed.
The anti-tumor effect of the test article was further evaluated with tumor weight (TW) measured on day of necropsy (Day 16). The PI of TW was calculated using the equation below:
PITW(%)=100×(TW vehicle−TW drug treated)/TW vehicle
Inter-group comparison was performed in terms of tumor volume, tumor weight and body weight, using a student's t test. P values of less than 0.05 were considered to be statistically significant.

Row | Compound | Tumor weight on Day 16 (animal F1) [g] | Tumor weight on Day 16 (animal F2) [g] | Tumor weight on Day 16 (animal F3) [g] | Tumor weight on Day 16 (animal F4) [g] | Tumor weight on Day 16 (animal F5) [g] | Tumor weight on Day 16 (animal M1) [g] | Tumor weight on Day 16 (animal M2) [g] | Tumor weight on Day 16 (animal M3) [g] | Tumor weight on Day 16 (animal M4) [g] | Tumor weight on Day 16 (animal M5) [g] | Tumor Weight (g) (Mean ± SD) | percent inhibition of tumor weight vs vehicle [%]
1 | CN(C)/N=N/c1[nH]cnc1C(N)=O [DTIC, Dacarbazine] | 1.40 | 0.43 | 0.47 | 0.68 | 0.56 | 1.80 | 1.80 | 0.83 | 2.30 | 1.90 | 1.22 ± 0.699 | 28.41
2 | Thymosin Alpha-1 (Ac-SDAAVDTSSEITTKDLKEKKEVVEEAEN; ends and bridges not checked; UniProt P06454 2-29, looked up) [TA-1, 28 amino acid peptide, immunomodulator; test article (SciClone), 6 mg/kg s.c. daily] | 0.63 | 0.44 | 0.45 | 0.75 | 0.08 | 0.73 | 1.30 | 2.00 | 2.20 | 1.05 | 0.96 ± 0.688 | 43.35
3 | CNC(=O)c1cc(Oc2ccc(NC(=O)Nc3ccc(Cl)c(C(F)(F)F)c3)cc2)ccn1 [Sorafenib] | 0.23 | 0.16 | 0.32 | 0.30 | 0.16 | 0.10 | 0.38 | 0.20 | 0.25 | 0.32 | 0.24 ± 0.088 | 85.76
